Test results published in patent publication US4684664A, “Derivatives of β-(4-isocyano-1,2,3,4-diepoxycyclopentyl) acrylic acid” (Kureha Kagaku Kogyo Kabushiki Kaisha, priority 1984, dated 1987).
In brackets after ≈: the same amount, converted by molar mass.

Assays:
Type in all cases: cell-based
[1] = test system: Proteus vulgaris HX-19; assay: Antibacterial activity, agar-dilution MIC, organism No. 21; conditions: Proteus vulgaris, HX19; Organism No. 21, bouillon-agar; read-out: Minimum Inhibitory Concentration
Summary of the method: (§1)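 For each organism the specimen was serially diluted into bouillon agar, and inhibition was scored to give the MIC in μg/ml of culture medium.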

[2] = test system: Salmonella shottmuelleri 8006; assay: Antibacterial activity, agar-dilution MIC, organism No. 11; conditions: Salmonella, 8006; Organism No. 11, bouillon-agar; read-out: Minimum Inhibitory Concentration
Summary of the method: as §1

[3] = test system: Escherichia coli K12 C600 IAM 1264; assay: Antibacterial activity, agar-dilution MIC, organism No. 6; conditions: Escherichia coli, IAM1264; Organism No. 6, bouillon-agar; read-out: Minimum Inhibitory Concentration
Summary of the method: as §1

[4] = test system: Streptococcus pyogenes IFO 3340; assay: Antibacterial activity, agar-dilution MIC, organism No. 26; conditions: Streptococcus pyogenes, IFO3340; Organism No. 26, bouillon-agar; read-out: Minimum Inhibitory Concentration
Summary of the method: as §1

[5] = test system: Staphylococcus aureus FDA 209PJc-1; assay: Antibacterial activity, agar-dilution MIC, organism No. 1; conditions: Staphylococcus aureus, FDA209PJC1; Organism No. 1, bouillon-agar; read-out: Minimum Inhibitory Concentration
Summary of the method: as §1

[6] = test system: Serratia marcescens IAM 1184; assay: Antibacterial activity, agar-dilution MIC, organism No. 13; conditions: Serratia marcescens, IAM1184; Organism No. 13, bouillon-agar; read-out: Minimum Inhibitory Concentration
Summary of the method: as §1

[7] = test system: Candida albicans IAM 4905; assay: Antifungal activity, agar-dilution MIC, organism No. 29; conditions: Candida albicans, IAM4905; Organism No. 29, bouillon-agar; read-out: Minimum Inhibitory Concentration
Summary of the method: as §1

[8] = test system: Streptococcus faecium IFO 3826; assay: Antibacterial activity, agar-dilution MIC, organism No. 27; conditions: Enterococcus faecium, IFO3826; Organism No. 27, bouillon-agar; read-out: Minimum Inhibitory Concentration
Summary of the method: as §1

[9] = test system: Proteus rettgeri IFO 3850; assay: Antibacterial activity, agar-dilution MIC, organism No. 22; conditions: Providencia rettgeri, IFO3850; Organism No. 22, bouillon-agar; read-out: Minimum Inhibitory Concentration
Summary of the method: as §1

[10] = test system: Salmonella paratyphi-A 1015; assay: Antibacterial activity, agar-dilution MIC, organism No. 10; conditions: Salmonella enterica, PARATYPHI, read-out: Minimum Inhibitory Concentration
Summary of the method: as §1

[11] = test system: Salmonella typhi 901; assay: Antibacterial activity, agar-dilution MIC, organism No. 9; conditions: Salmonella enterica, TYPHI, read-out: Minimum Inhibitory Concentration
Summary of the method: as §1

[12] = test system: Enterobacter aerogenes ATCC 13048; assay: Antibacterial activity, agar-dilution MIC, organism No. 23; conditions: Klebsiella aerogenes, ATCC13048; Organism No. 23, bouillon-agar; read-out: Minimum Inhibitory Concentration
Summary of the method: as §1

[13] = test system: Aspergillus niger IFO 6342; assay: Antifungal activity, agar-dilution MIC, organism No. 30; conditions: Aspergillus niger, IFO6342; Organism No. 30, bouillon-agar; read-out: Minimum Inhibitory Concentration
Summary of the method: as §1

[14] = test system: Salmonella typhimurium IID 971; assay: Antibacterial activity, agar-dilution MIC, organism No. 8; conditions: Salmonella enterica; Organism No. 8, bouillon-agar; read-out: Minimum Inhibitory Concentration
Summary of the method: as §1

[15] = test system: Staphylococcus aureus Terajima; assay: Antibacterial activity, agar-dilution MIC, organism No. 2; conditions: Staphylococcus aureus; Organism No. 2, bouillon-agar; read-out: Minimum Inhibitory Concentration
Summary of the method: as §1

[16] = test system: Proteus morganii IFO 3848; assay: Antibacterial activity, agar-dilution MIC, organism No. 18; conditions: Morganella morganii, IFO3848; Organism No. 18, bouillon-agar; read-out: Minimum Inhibitory Concentration
Summary of the method: as §1

[17] = test system: Bacillus subtilis ATCC 6633; assay: Antibacterial activity, agar-dilution MIC, organism No. 14; conditions: Bacillus subtilis, ATCC6633; Organism No. 14, bouillon-agar; read-out: Minimum Inhibitory Concentration
Summary of the method: as §1

[18] = test system: Proteus vulgaris OX-19; assay: Antibacterial activity, agar-dilution MIC, organism No. 20; conditions: Proteus vulgaris, OX19; Organism No. 20, bouillon-agar; read-out: Minimum Inhibitory Concentration
Summary of the method: as §1

[19] = test system: Klebsiella pneumoniae PCI-602; assay: Antibacterial activity, agar-dilution MIC, organism No. 7; conditions: Klebsiella pneumoniae, PCI602; Organism No. 7, bouillon-agar; read-out: Minimum Inhibitory Concentration
Summary of the method: as §1

[20] = test system: Pseudomonas aeruginosa PAO 1; assay: Antibacterial activity, agar-dilution MIC, organism No. 17; conditions: Pseudomonas aeruginosa, PAO1; Organism No. 17, bouillon-agar; read-out: Minimum Inhibitory Concentration
Summary of the method: as §1

[21] = test system: Mycoplasma pneumoniae IID817; assay: Antimycoplasmal activity, MIC by phenol red colour change, organism No. 28; conditions: Mycoplasma, IID817; Organism No. 28, PPLO broth + 1% glucose, 37° C.; read-out: Minimum Inhibitory Concentration (MIC)
Experimental: Mycoplasma pneumoniae IID817 was used as the test microorganism in a culture medium prepared by adding 1% of glucose to "PPLO broth (manufactured by Difco Co.) liquid culture medium" at 37° C. with phenol red as an indicator, thereby culturing the test microorganism.

[22] = test system: Micrococcus luteus ATCC 9341; assay: Antibacterial activity, agar-dilution MIC, organism No. 25; conditions: Micrococcus luteus, ATCC9341; Organism No. 25, bouillon-agar; read-out: Minimum Inhibitory Concentration
Summary of the method: as §1

[23] = test system: Staphylococcus aureus MS 353; assay: Antibacterial activity, agar-dilution MIC, organism No. 3; conditions: Staphylococcus aureus, MS353; Organism No. 3, bouillon-agar; read-out: Minimum Inhibitory Concentration
Summary of the method: as §1

[24] = test system: Escherichia coli NIHJ-JC-2; assay: Antibacterial activity, agar-dilution MIC, organism No. 5; conditions: Escherichia coli, NIHJJC2; Organism No. 5, bouillon-agar; read-out: Minimum Inhibitory Concentration
Summary of the method: as §1

[25] = test system: Pseudomonas aeruginosa NCTC 10490; assay: Antibacterial activity, agar-dilution MIC, organism No. 16; conditions: Pseudomonas aeruginosa, NCTC10490; Organism No. 16, bouillon-agar; read-out: Minimum Inhibitory Concentration
Summary of the method: as §1

[26] = test system: Salmonella enteritidis G 14; assay: Antibacterial activity, agar-dilution MIC, organism No. 12; conditions: Salmonella enterica, ENTERITIDIS; Organism No. 12, bouillon-agar; read-out: Minimum Inhibitory Concentration
Summary of the method: as §1

[27] = test system: Streptococcus pyogenes Cook; assay: Antibacterial activity, agar-dilution MIC, organism No. 4; conditions: Streptococcus pyogenes; Organism No. 4, bouillon-agar; read-out: Minimum Inhibitory Concentration
Summary of the method: as §1

[28] = test system: Proteus mirabilis IFO 3849; assay: Antibacterial activity, agar-dilution MIC, organism No. 19; conditions: Proteus mirabilis, IFO3849; Organism No. 19, bouillon-agar; read-out: Minimum Inhibitory Concentration
Summary of the method: as §1

[29] = test system: Enterobacter cloacae 963; assay: Antibacterial activity, agar-dilution MIC, organism No. 24; conditions: Enterobacter cloacae, 963; Organism No. 24, bouillon-agar; read-out: Minimum Inhibitory Concentration
Summary of the method: as §1

[30] = test system: Pseudomonas aeruginosa IFO 3445; assay: Antibacterial activity, agar-dilution MIC, organism No. 15; conditions: Pseudomonas aeruginosa, IFO3445; Organism No. 15, bouillon-agar; read-out: Minimum Inhibitory Concentration
Summary of the method: as §1

Row | Compound | MIC [1] | MIC [2] | MIC [3] | MIC [4] | MIC [5] | MIC [6] | MIC [7] | MIC [8] | MIC [9] | MIC [10] | MIC [11] | MIC [12] | MIC [13] | MIC [14] | MIC [15] | MIC [16] | MIC [17] | MIC [18] | MIC [19] | MIC [20] | other results
1 | [C-]#[N+]C12CC3(/C=C/C(=O)Nc4cccc(C(=O)OC)c4)OC3C1O2 (stereo not drawn) [compound 50] | 0.1 µg/mL (≈ 0.306 µM) | 1.56 µg/mL (≈ 4.78 µM) | > 200 µg/mL | 1.56 µg/mL (≈ 4.78 µM) | 0.2 µg/mL (≈ 0.613 µM) | > 200 µg/mL | 0.79 µg/mL (≈ 2.42 µM) | 12.5 µg/mL (≈ 38.3 µM) | 6.25 µg/mL (≈ 19.2 µM) | 6.25 µg/mL (≈ 19.2 µM) | 25 µg/mL (≈ 76.6 µM) | > 200 µg/mL | 1.56 µg/mL (≈ 4.78 µM) | 50 µg/mL (≈ 153 µM) | 1.56 µg/mL (≈ 4.78 µM) | 1.56 µg/mL (≈ 4.78 µM) | 6.25 µg/mL (≈ 19.2 µM) | 1.56 µg/mL (≈ 4.78 µM) | 0.39 µg/mL (≈ 1.2 µM) | > 200 µg/mL | MIC [21]: < 0.2 µg/mL; MIC [22]: < 0.05 µg/mL; MIC [23]: 0.39 µg/mL (≈ 1.2 µM); MIC [24]: > 200 µg/mL; MIC [25]: > 200 µg/mL; MIC [26]: 6.25 µg/mL (≈ 19.2 µM); MIC [27]: 200 µg/mL (≈ 613 µM); MIC [28]: > 200 µg/mL; MIC [29]: 200 µg/mL (≈ 613 µM); MIC [30]: > 200 µg/mL
2 | [C-]#[N+]C12CC3(/C=C/C(=O)Nc4cccc(C(=O)O)c4)OC3C1O2 (stereo not drawn) [compound 52] | 50 µg/mL (≈ 160 µM) | 50 µg/mL (≈ 160 µM) | 200 µg/mL (≈ 640 µM) | 100 µg/mL (≈ 320 µM) | 12 µg/mL (≈ 38.4 µM) | > 200 µg/mL | 100 µg/mL (≈ 320 µM) | 50 µg/mL (≈ 160 µM) | > 200 µg/mL | 50 µg/mL (≈ 160 µM) | 50 µg/mL (≈ 160 µM) | > 200 µg/mL | 100 µg/mL (≈ 320 µM) | 100 µg/mL (≈ 320 µM) | 50 µg/mL (≈ 160 µM) | 12.5 µg/mL (≈ 40 µM) | 200 µg/mL (≈ 640 µM) | 50 µg/mL (≈ 160 µM) | 200 µg/mL (≈ 640 µM) | > 200 µg/mL | MIC [21]: < 0.2 µg/mL; MIC [22]: 25 µg/mL (≈ 80.1 µM); MIC [23]: 25 µg/mL (≈ 80.1 µM); MIC [24]: 200 µg/mL (≈ 640 µM); MIC [25]: > 200 µg/mL; MIC [26]: 50 µg/mL (≈ 160 µM); MIC [27]: 50 µg/mL (≈ 160 µM); MIC [28]: > 200 µg/mL; MIC [29]: > 200 µg/mL; MIC [30]: > 200 µg/mL
3 | [C-]#[N+]C12CC3(/C=C/C(=O)Nc4ccccc4OC)OC3C1O2 (stereo not drawn) [compound 55] | < 0.05 µg/mL | 3.13 µg/mL (≈ 10.5 µM) | 200 µg/mL (≈ 670 µM) | 6.25 µg/mL (≈ 21 µM) | 1.56 µg/mL (≈ 5.23 µM) | > 200 µg/mL | 3.13 µg/mL (≈ 10.5 µM) | 200 µg/mL (≈ 670 µM) | > 200 µg/mL | 12.5 µg/mL (≈ 41.9 µM) | 25 µg/mL (≈ 83.8 µM) | > 200 µg/mL | 12.5 µg/mL (≈ 41.9 µM) | 50 µg/mL (≈ 168 µM) | 3.13 µg/mL (≈ 10.5 µM) | 6.25 µg/mL (≈ 21 µM) | 25 µg/mL (≈ 83.8 µM) | 6.25 µg/mL (≈ 21 µM) | 0.39 µg/mL (≈ 1.31 µM) | > 200 µg/mL | MIC [21]: < 0.2 µg/mL; MIC [22]: < 0.05 µg/mL; MIC [23]: 0.78 µg/mL (≈ 2.61 µM); MIC [24]: 200 µg/mL (≈ 670 µM); MIC [25]: > 200 µg/mL; MIC [26]: 12.5 µg/mL (≈ 41.9 µM); MIC [27]: 200 µg/mL (≈ 670 µM); MIC [28]: > 200 µg/mL; MIC [29]: > 200 µg/mL; MIC [30]: > 200 µg/mL
4 | [C-]#[N+]C12CC3(/C=C/C(=O)OCC(C)C)OC3C1O2 (stereo not drawn) [compound 18] | 0.1 µg/mL (≈ 0.401 µM) | 0.78 µg/mL (≈ 3.13 µM) | 12.5 µg/mL (≈ 50.1 µM) | 1.56 µg/mL (≈ 6.26 µM) | 0.39 µg/mL (≈ 1.56 µM) | 200 µg/mL (≈ 802 µM) | 0.2 µg/mL (≈ 0.802 µM) | 12.5 µg/mL (≈ 50.1 µM) | 100 µg/mL (≈ 401 µM) | 1.56 µg/mL (≈ 6.26 µM) | 3.13 µg/mL (≈ 12.6 µM) | > 200 µg/mL | 0.78 µg/mL (≈ 3.13 µM) | 12.5 µg/mL (≈ 50.1 µM) | 12.5 µg/mL (≈ 50.1 µM) | 3.13 µg/mL (≈ 12.6 µM) | 0.78 µg/mL (≈ 3.13 µM) | 0.2 µg/mL (≈ 0.802 µM) | 1.56 µg/mL (≈ 6.26 µM) | > 200 µg/mL | MIC [21]: < 0.2 µg/mL; MIC [22]: 1.56 µg/mL (≈ 6.26 µM); MIC [23]: 3.13 µg/mL (≈ 12.6 µM); MIC [24]: 12.5 µg/mL (≈ 50.1 µM); MIC [25]: 200 µg/mL (≈ 802 µM); MIC [26]: 6.25 µg/mL (≈ 25.1 µM); MIC [27]: 0.78 µg/mL (≈ 3.13 µM); MIC [28]: 6.25 µg/mL (≈ 25.1 µM); MIC [29]: 200 µg/mL (≈ 802 µM); MIC [30]: > 200 µg/mL
